{"source": "patent US7462605B2", "about": "“Phosphoramidate compounds and methods of use” (Celmed Oncology (USA), Inc., priority 2002, dated 2008)", "key": {"TS in intact RKO cells": {"biological_target": "T1, TS in intact RKO cells (Homo sapiens, UniProt P04818)", "T1 construct": "endogenous in cells; host or cells: RKO cells", "T1 sequence (P04818 2-313 limits assumed)": "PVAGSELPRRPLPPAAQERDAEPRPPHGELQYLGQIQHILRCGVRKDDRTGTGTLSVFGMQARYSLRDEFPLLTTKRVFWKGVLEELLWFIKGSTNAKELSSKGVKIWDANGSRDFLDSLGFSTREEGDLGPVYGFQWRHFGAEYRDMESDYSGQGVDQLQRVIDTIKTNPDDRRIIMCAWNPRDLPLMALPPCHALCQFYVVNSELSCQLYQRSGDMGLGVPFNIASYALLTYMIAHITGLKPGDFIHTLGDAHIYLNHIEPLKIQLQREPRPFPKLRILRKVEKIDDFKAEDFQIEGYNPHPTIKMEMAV", "assay": "TS activity in intact cells by tritium release", "format": "cell-based", "details": "release of [^3H]2O from 5-[^3H]deoxyuridine", "experimental": "TS activity was measured in intact RKO cells by release of [^3H]2O from 5-[^3H]deoxyuridine as described in Materials and Methods. NB1011 was washed out of cells by replacing with fresh media, incubating for 60 minutes at 37 ° C., then repeating this procedure. Control and untreated cells were subjected to the same washing procedure.\nTS Activity Assay by Tritium Release from dUMP-^3H. Cells were plated in 24 well plates to a density of 30,000 cells/plate and incubated for 16 hours to allow adhesion to the plastic surface of the plate.\nImmediately prior to the thymidylate synthase assay, the media was replaced with RPMI+10% dialyzed fetal calf serum. 0.5 μCi of 5-[^3H]deoxyuridine was added to each well, and plates were incubated for 60 minutes at 37° C. without additional CO2. [^3H] release was measured by adsorbing 5-[^3H]deoxyuridine to activated charcoal (10% in 1×PBS) for 5 minutes at room temperature. After centrifugation for 5 minutes at 13,000 RPM, the amount of [^3H] in the supernatant was determined by liquid scintillation counting.\nThe results described above indicate that BVdUMP, generated intracellularly from NB1011, is unlikely to inactivate TS during its transformation to product(s). […] In these experiments exogenous 5-(3H) deoxyuridine is added to cell culture medium and the release of tritiated water is monitored (Carreras, C. W. and Santi, D. V. (1995) and Roberts (1966)). […]"}, "[1]": {"tested_on": "CCD18co normal colon epithelial cells", "assay": "alamarBlue growth inhibition, CCD18co", "format": "cell-based, human", "experimental": "(§1) Growth Inhibition Studies. Cells growing exponentially were transferred to 384-well flat bottom tissue culture plates. All cell types were plated at a density of 500 cells per well in 25 μL of complete medium (RPMI 1640+10% fetal bovine serum+antibiotics/antimycotics). After 24 hours (day 0), 25 μL of complete medium containing the experimental compounds over the dose range of 10^ñ3 to 10^ñ10 M were added in triplicate. […] 5 μL of the redox indicator, alamarBlue, was added to each well (10% v/v). After 4 hours incubation at 37° C., fluorescence was monitored at 535 nm excitation and 595 nm emission.\n(§2) Concentration vs. relative fluorescence units (RFU) were plotted, and sigmoid curves were fit using the Hill equation."}, "[2]": {"tested_on": "NHEPF (Liver) normal cells", "assay": "alamarBlue growth inhibition, NHEPF", "format": "cell-based, human", "details": "120 hours", "experimental": "as §1, §2"}, "[3]": {"tested_on": "H630R10 5FU-resistant colon tumor cells", "assay": "alamarBlue growth inhibition, H630R10", "format": "cell-based, human", "experimental": "as §1, §2"}, "[4]": {"tested_on": "HT1080 (Colon) tumor cells", "assay": "alamarBlue growth inhibition, HT1080", "format": "cell-based, human", "details": "120 hours", "experimental": "as §1, §2"}, "[5]": {"tested_on": "COLO320 (Colon) tumor cells", "assay": "alamarBlue growth inhibition, COLO320", "format": "cell-based, human", "details": "120 hours", "experimental": "as §1, §2"}, "HCTC (Colon) tumor cells": {"tested_on": "HCTC (Colon) tumor cells", "assay": "alamarBlue growth inhibition, HCTC", "format": "cell-based, human", "details": "120 hours", "experimental": "as §1, §2"}, "[6]": {"tested_on": "PANC1 (Pancreas) tumor cells", "assay": "alamarBlue growth inhibition, PANC1", "format": "cell-based, human", "details": "120 hours", "experimental": "as §1, §2"}, "[7]": {"tested_on": "SKOV3 (Ovary) tumor cells", "assay": "alamarBlue growth inhibition, SKOV3", "format": "cell-based, human", "details": "120 hours", "experimental": "as §1, §2"}, "[8]": {"tested_on": "HEPG2 (Liver) tumor cells", "assay": "alamarBlue growth inhibition, HEPG2", "format": "cell-based, human", "details": "120 hours", "experimental": "as §1, §2"}, "[9]": {"tested_on": "MCIxc (Brain) tumor cells", "assay": "alamarBlue growth inhibition, MCIxc", "format": "cell-based, human", "details": "120 hours", "experimental": "as §1, §2"}, "[10]": {"tested_on": "MCF7 TDX/1011 cells (MCF7 TDX selected for resistance to NB1011)", "assay": "alamarBlue cytotoxicity, MCF7 TDX/1011", "format": "cell-based, human", "experimental": "as §1, §2\nReversal of Resistance. The origin and characteristics of the human breast cancer MCF7 TDX cell line have been previously described (Drake, et al. (1996)). Briefly, MCF-7 breast cancer cells were selected in vitro for resistance to Tomudex by continuous exposure to stepwise increases in TDX concentrations up to 2.0 μM. […] After a dramatic initial cell killing effect, resistant colonies emerged, and vigorously growing monolayers were formed. TS protein level and IC50 for 5-FU, TDX, and NB1011 were determined for the resultant MCF7 TDX/1011 cell line as described in above by western blot and the alamarBlue cytotoxicity assay, respectively."}, "RKO colon cancer cells": {"tested_on": "RKO colon cancer cells", "assay": "alamarBlue cytotoxicity, RKO parental", "format": "cell-based, human", "details": "Drug Selection None, read-out: NB1011-IC50", "experimental": "as §1, §2\nCells were grown and characterized as described above. TS expression level is relative to CCD18co, a normal colon epithelial cell line. Tritium release is background substracted as described in Methods. ND=Not detectable above background."}, "[11]": {"tested_on": "collagen induced arthritis", "assay": "Collagen induced arthritis in DBA/1 mice", "format": "in vivo, mouse", "details": "vs saline-treated control; NB1011 2.5 mg per day intraperitoneal", "procedure": "Arthritis was induced in male DBA/1 mice (8-10 weeks old) by intradermal injection of bovine type II collagen, purified in-house at the Kennedy Institute of Rheumatology as previously described (Miller, E. J. et al. (1972)). Collagen was administered in complete Freund's adjuvant (Difco, Detroit, Mich.). Onset of arthritis is expected to be variable. Arthritis onset is considered to occur on the day that swelling and/or erythema were observed. Clinical score is a composite of disease severity and the number of limbs affected, and is monitored daily from onset of disease and used as an assessment of disease progress. An example for scoring is: 0, Normal; 1, slight swelling with erythema; 2, pronounced swelling; 3, joint rigidity. In addition, the extent of paw swelling reflects the degree of edema in affected limbs.\nNB1011 was administered daily by intraperitoneal administration at 2.5 mg total dose per day.\nFollowing immunization with collagen, mice were maintained until a significant clinical score for disease progression was achieved (between 2.5 and 3.5). Mice were then treated with control saline injections, NB1011, or with anti-TNF antibody as a positive control. […] Paw swelling is an alternative measure of CIA disease severity."}, "[12]": {"tested_on": "TDX-resistant MCF7 breast tumor cells", "assay": "Tomudex inhibition of NB1011 cytotoxicity (Tomudex rescue assay, alamarBlue)", "details": "for IC50: read-out: NB1011 IC50", "experimental": "Tomudex Inhibition of NB1011 Cytotoxicity. MCF7-TDX were transferred to a 384 well assay plate at 500 cells in 25 μL complete medium per well. After 24 hours (day 0), 25 μL complete medium containing a combination of NB1011 in doubling serial dilutions from 1 mM and tomudex at discrete concentrations (0,1,10,100,1000 nM) were added in duplicate. Drug exposure time was 120 hours (day 5) after which growth inhibition was measured with alamarBlue as described above in Growth Inhibition Studies (above).\nTomudex is a chemotherapeutic that acts primarily via inhibition of TS. If NB1011 exerts cytotoxicity via the TS enzyme, then inhibition of TS with Tomudex should decrease NB1011-mediated cytotoxicity. […] Cells were plated and exposed to indicated concentrations of compound(s) as described above."}, "[13]": {"tested_on": "H630R10 (5FU Resistant) human colon carcinoma", "assay": "H630-10 5-FU resistant colon carcinoma xenografts in athymic mice", "details": "1.25, 2.5, 3.5 mg daily × 5 days, IP or IT/peritumoral; from Day 6 to Day 25", "procedure": "Tumor measurements began on the first day of treatment (Day 1).\nFollowing cell expansion ex-vivo H630-10 were injected subcutaneously (S.Q.) at 1.5×10^7 cells/tumor in the mid-back region of 4-6 week old, female, CD-1 (nu/nu), athymic mice (Charles River Laboratories, Wilmington, Mass.). Tumor volumes, calculated as the product of length, width, and depth, were monitored twice weekly by serial micrometer measurements by a single observer. Six animals were randomly assigned to each treatment group and statistical tests were performed (single-factor ANOVA) to assure uniformity in starting tumor volumes between treatment and control groups at the beginning of the experiment. […] To assure accurate dosing, drug doses were individualized based upon animal weights determined immediately prior to each injection. […] Differences in day 25 xenograft volumes between groups were analyzed by single-factor ANOVA of the log transformed tumor volume data."}}, "note": "Entries after “also recorded” stand apart in the source; their conditions may differ. Like-named read-outs stand apart in the source and are kept apart here.", "data": [{"substance": "5-(2-Bromovinyl)-2′-deoxyuridine phenyl N-methoxy-L-alaninyl phosphoramidate [NB1011]", "values": [{"measurement": "effect on TS activity in intact cells after wash-out", "setting": "TS in intact RKO cells", "result": "completely reversible; also recorded: does not irreversibly inactivate the TS enzyme"}, {"measurement": "IC50", "setting": "[1]; Normal Cells: CCD1800 (Colon), alamarBlue, 120 hours", "result": 562, "unit": "µM"}, {"measurement": "IC50", "setting": "[1]; normal colon epithelial cells (CCD18co), comparison with 5FUdR", "result": "> 2500", "unit": "µM"}, {"measurement": "IC50", "setting": "[2]", "result": 2080, "unit": "µM"}, {"measurement": "IC50", "setting": "[3]; H630 Colon cancer, Drug Selection 5FU, read-out: NB1011-IC50", "result": 65, "unit": "µM"}, {"measurement": "NB1011 activity diminished, compared to NB1011 alone", "setting": "[3]; H630R10, in the presence of 3 μM LV, alamarBlue", "result": "more than 90%"}, {"measurement": "IC50", "setting": "[3]; H630R10, comparison with 5FUdR, read-out: IC50", "result": 217, "unit": "µM"}, {"measurement": "IC50", "setting": "[3]; Tumor Cells: H630R10 (Colon), alamarBlue, 120 hours, read-out: IC50", "result": 65, "unit": "µM"}, {"measurement": "IC50", "setting": "[4]", "result": 449, "unit": "µM"}, {"measurement": "IC50", "setting": "[5]", "result": 401, "unit": "µM"}, {"measurement": "IC50", "setting": "HCTC (Colon) tumor cells", "result": 280, "unit": "µM"}, {"measurement": "IC50", "setting": "[6]", "result": 492, "unit": "µM"}, {"measurement": "IC50", "setting": "[7]", "result": 484, "unit": "µM"}, {"measurement": "IC50", "setting": "[8]", "result": 704, "unit": "µM"}, {"measurement": "IC50", "setting": "[9]", "result": 61, "unit": "µM"}, {"measurement": "IC50", "setting": "[10]", "result": 240, "unit": "µM"}, {"measurement": "IC50", "setting": "RKO colon cancer cells", "result": 136, "unit": "µM"}, {"measurement": "clinical score (disease suppression)", "setting": "[11]", "result": "significant disease suppression"}, {"measurement": "paw swelling (disease suppression)", "setting": "[11]", "result": "significant disease suppression"}, {"measurement": "inhibition of NB1011-mediated cytotoxicity by blockade of TS with Tomudex", "setting": "[12]; maximum (up to)", "result": "about 25 fold"}, {"measurement": "IC50", "setting": "[12]; [Tomudex] 0 nM", "result": 5.7, "unit": "µM"}, {"measurement": "IC50", "setting": "[12]; [Tomudex] 1 nM", "result": 25.5, "unit": "µM"}, {"measurement": "IC50", "setting": "[12]; [Tomudex] 10 nM", "result": 87.7, "unit": "µM"}, {"measurement": "IC50", "setting": "[12]; [Tomudex] 100 nM", "result": 140, "unit": "µM"}, {"measurement": "IC50", "setting": "[12]; [Tomudex] 1000 nM", "result": 103, "unit": "µM"}, {"measurement": "tumor growth (xenograft volume)", "setting": "[13]", "result": "significant difference between the NB1011 groups vs. either the 5FU or excipient controls"}]}]}
